Measurements reported in patent US11478474B2, “2-(3′-(hydroxymethyl)-1-methyl-5-((5-(2-methyl-4-(oxetan-3-yl)piperazin-1-yl)pyridin-2-yl)amino)-6-oxo-1,6-dihydro-[3,4′-bipyridin]-2′-yl)-7,7-dimethyl-7,8-dihydro-2H-cyclopenta[4,5]pyrrolo[1,2-a]pyrazin-1(6H)-one as a BTK inhibitor” (HUTCHISON MEDIPHARMA LIMITED, priority 2020, dated 2022).

Legend:
[1] = molecular target: phosphorylated BTK in Ramos cells (Homo sapiens (Human), UniProt Q06187); experiment: Determination of phosphorylated BTK in Ramos cells (BTK phospho-Y223 HTRF); type: cell-based; settings: anti-human IgM + hydrogen peroxide stimulation
Procedure, shortened: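 Ramos cells starved 2 h in 1% FBS, then treated 1 h with compound (0.00018–3.0 μM, 0.3% DMSO). They were then stimulated 10 min at 37° C. with anti-human IgM (10 μg/mL) plus H2O2 (3.3 mM). Lysates read by BTK phospho-Y223 HTRF (665/615 nm ratio); IC50 fitted from inhibition normalized to stimulated and unstimulated controls.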

BTK recombinant protein = BTK recombinant protein (Homo sapiens (Human), UniProt Q06187); experiment: Determination of biochemical BTK (Z'-LYTE kinase assay)
Procedure, shortened: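 Human BTK recombinant kinase (3.32 nM final) was preincubated with compound for 30 min at 4 °C. Reaction ran 1 h at room temperature with Tyr01 FRET peptide (2 μM) and ATP (32 μM); development protease then added. Coumarin 445 nm/fluorescein 520 nm emission ratio (400 nm excitation) gave inhibition across 8 concentrations, 3000–1.37 nM.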

BTK recombinant protein, sequence (Q06187 whole entry): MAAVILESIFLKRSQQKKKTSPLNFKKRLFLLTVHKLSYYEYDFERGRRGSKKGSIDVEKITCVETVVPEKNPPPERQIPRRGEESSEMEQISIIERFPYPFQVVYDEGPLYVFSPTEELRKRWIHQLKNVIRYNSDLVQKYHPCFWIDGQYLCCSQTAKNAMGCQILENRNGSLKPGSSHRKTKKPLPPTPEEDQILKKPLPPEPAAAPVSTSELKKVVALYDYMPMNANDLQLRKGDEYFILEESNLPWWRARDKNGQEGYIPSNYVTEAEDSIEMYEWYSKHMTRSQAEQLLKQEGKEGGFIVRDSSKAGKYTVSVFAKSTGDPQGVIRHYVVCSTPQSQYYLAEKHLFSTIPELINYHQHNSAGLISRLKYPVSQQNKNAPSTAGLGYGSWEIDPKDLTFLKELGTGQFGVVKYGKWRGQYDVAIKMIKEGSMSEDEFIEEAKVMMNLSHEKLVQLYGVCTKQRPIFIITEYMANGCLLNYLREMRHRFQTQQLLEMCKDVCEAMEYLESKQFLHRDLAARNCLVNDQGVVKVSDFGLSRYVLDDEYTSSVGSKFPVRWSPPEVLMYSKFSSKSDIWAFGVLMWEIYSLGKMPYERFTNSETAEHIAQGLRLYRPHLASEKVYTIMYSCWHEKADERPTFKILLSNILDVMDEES
phosphorylated BTK in Ramos cells, sequence (Q06187 whole entry): as above

| IC50 [1] [nM] | IC50 (BTK recombinant protein) [nM] | Compound |
| --- | --- | --- |
| 1 | 7 | C[C@H]1CN(C#N)CCN1c1ccc(Nc2cc(-c3ccnc(-n4ccn5c6c(cc5c4=O)CC(C)(C)C6)c3CO)cn(C)c2=O)nc1 [Compound 108] |
| 24 | 31 | CCn1cc(-c2ccnc(-n3ccn4c5c(cc4c3=O)CC(C)(C)C5)c2CO)cc(Nc2ccc(N3CCOC[C@@H]3C)nn2)c1=O [Compound 214] |
| 11 | 41 | CCn1cc(Nc2cc(-c3ccnc(-n4ccn5c6c(cc5c4=O)CC(C)(C)C6)c3CO)cn(C)c2=O)cn1 [Compound 172] |
| 18 | 18 | C[C@H]1CN(C2COC2)CCN1c1ccc(Nc2cc(-c3ccnc(-n4ccn5c(cc6cccc(F)c65)c4=O)c3CO)cn(C)c2=O)nc1 [Compound 52] |
| 13 | 230 | Cc1c(-c2cc(Nc3ccc(N4CCN(C5COC5)C[C@@H]4C)cn3)c(=O)n(C)c2)ccnc1-n1ccn2c3c(cc2c1=O)CC(C)(C)C3 [Compound 12] |
| 10 | 32 | C[C@@H]1[C@H](C)N(c2ccc(Nc3cc(-c4ccnc(-n5ccn6c7c(cc6c5=O)CC(C)(C)C7)c4CO)cn(C)c3=O)nc2)CCN1C1COC1 [Compound 234] |
| 20 | 29 | Cn1cc(-c2ccnc(-n3ccn4c5c(cc4c3=O)CC(C)(C)C5)c2CO)cc(Nc2ccc(N3C[C@@H]4C[C@H]3CN4C3COC3)cn2)c1=O [Compound 230] |
| 15 | 15 | C[C@@H]1CN(c2ccc(Nc3cc(-c4ccnc(-n5ccn6c7c(cc6c5=O)CC(C)(C)C7)c4CO)cn(C)c3=O)nn2)[C@@H](C)CN1C1COC1 [Compound 205] |
| 17 | 8 | CCn1cc(-c2ccnc(-n3ccn4c5c(cc4c3=O)CC(C)(C)C5)c2CO)cc(Nc2ccc(N3CCN(C4COC4)C[C@@H]3C)cn2)c1=O [Compound 202] |
| 3 | 21 | C[C@H]1CN(C2COC2)CCN1c1ccc(Nc2cc(-c3ccnc(-n4ccn5c6c(c(Br)c5c4=O)CC(C)(C)C6)c3CO)cn(C)c2=O)nc1 [Compound 62] |
| 7 | < 1 | Cn1cc(-c2ccnc(-n3ncn4c5c(cc4c3=O)CC(C)(C)C5)c2CO)cc(Nc2cc3n(n2)CCN(C2COC2)C3)c1=O [Compound 122] |
| 70 | 19 | CC(O)CN(CCNc1ccc(Nc2cc(-c3ccnc(-n4ccn5c6c(cc5c4=O)CC(C)(C)C6)c3CO)cn(C)c2=O)nc1)C1COC1 (racemic) [Compound 179] |
| 16 | 3 | Cn1cc(-c2ccnc(-n3ccn4c5c(c(F)c4c3=O)CCCC5)c2CO)cc(Nc2cc3n(n2)CCOC3)c1=O [Compound 176] |
| 7 | 6 | Cn1cc(-c2ccnc(-n3ccn4c5c(cc4c3=O)CC(C)(C)C5)c2CO)cc(Nc2cc3n(n2)CCN(C2COC2)C3)c1=O [Compound 124] |
| 1 | 12 | CN(c1ccc(Nc2cc(-c3ccnc(-n4ncn5c6c(cc5c4=O)CC(C)(C)C6)c3CO)cn(C)c2=O)nc1)C1COC1 [Compound 106] |
| 7 | 2 | C[C@H]1COCCN1c1ccc(Nc2cc(-c3ccnc(-n4ncn5c6c(cc5c4=O)CC(C)(C)C6)c3CO)cn(C)c2=O)nc1 [Compound 196] |
| > 3000 | > 3000 | CC(C)Nc1cc(-c2ccnc(-n3ccn4c5c(cc4c3=O)CC(C)(C)C5)c2CO)cn(C)c1=O [Compound 40] |
| 11 | < 1 | Cn1cc(-c2ccnc(-n3ccn4c5c(cc4c3=O)CC(C)(C)C5)c2CO)cc(Nc2ccc(C3CN(C4COC4)C3)cn2)c1=O [Compound 140] |
| 8 | 11 | Cn1cc(-c2ccnc(-n3ccn4c5c(cc4c3=O)CC(C)(C)C5)c2CO)cc(NC(=O)C2CC2)c1=O [Compound 89] |
| 67 | 25 | Cn1cc(-c2ccnc(-n3ccn4c(c(F)c5ccccc54)c3=O)c2CO)cc(Nc2ccc(C3CN(C4COC4)C3)cn2)c1=O [Compound 183] |
| 339 | 224 | CCn1cc(Nc2nc(-c3ccnc(-n4ccn5c6c(cc5c4=O)CC(C)(C)C6)c3CO)cn(C)c2=O)nn1 [Compound 3] |
| 60 | 82 | C[C@H]1CN(C2COC2)CCN1c1ccc(Nc2cc(-c3ccnc(-n4ccn5c(cc6cccnc65)c4=O)c3CO)cn(C)c2=O)nc1 [Compound 67] |
| 3 | 11 | Cc1cc(Nc2cc(-c3ccnc(-n4ccn5c6c(cc5c4=O)CC(C)(C)C6)c3CO)cn(C)c2=O)no1 [Compound 87] |

| IC50 [1] [nM] | IC50 (BTK recombinant protein) [nM] | Compound |
| --- | --- | --- |
| 21 | 4 | Cn1cc(-c2ccnc(-n3ccn4c5c(cc4c3=O)CC(C)(C)C5)c2CO)cc(Nc2ccc(C3CCN(C4COC4)CC3)nn2)c1=O [Compound 200] |
| 51 | 39 | C[C@H]1COCCN1c1ccc(Nc2cc(-c3ccnc(-n4ccn5c6c(cc5c4=O)CCC6)c3CO)cn(C)c2=O)nc1 [Compound 189] |
| 40 | 29 | C[C@H]1CN(C2COC2)CCN1c1ccc(Nc2cc(-c3ccnc(-n4cnn5c6c(c(F)c5c4=O)CCCC6)c3CO)cn(C)c2=O)nc1 [Compound 190] |
| 28 | 14 | CC1CCc2c(cc3c(=O)n(-c4nccc(-c5cc(Nc6ccc(N7CCN(C8COC8)C[C@@H]7C)cn6)c(=O)n(C)c5)c4CO)ccn23)C1 (mixture of isomers) [Compound 187] |
| 16 | 15 | Cc1cc(Nc2cc(-c3ccnc(-n4ccn5c6c(cc5c4=O)CC(C)(C)C6)c3CO)cn(C)c2=O)ncn1 [Compound 54] |
| 80 | 77 | C[C@H]1CN(C2COC2)CCN1c1ccc(Nc2cc(-c3ccnc(-n4cnn5c6c(cc5c4=O)CCCC6)c3CO)cn(C)c2=O)nc1 [Compound 184] |
| 3 | 10 | Cn1cc(-c2ccnc(-n3ccn4c5c(cc4c3=O)CC(C)(C)C5)c2CO)cc(Nc2ccc(N3CCN(C4COC4)CC3(C)C)cn2)c1=O [Compound 95] |
| 25 | 16 | C[C@H]1CN(C2COC2)CCN1c1ccc(Nc2cc(-c3ccnc(-n4ncn5c6c(cc5c4=O)CCCC6)c3CO)cn(C)c2=O)nc1 [Compound 157] |
| 31 | 4 | CCN1CCn2nc(Nc3cc(-c4ccnc(-n5ncn6c7c(cc6c5=O)CC(C)(C)C7)c4CO)cn(C)c3=O)cc2C1 [Compound 165] |
| 11 | 67 | C[C@H]1CN(C2COC2)CCN1c1ccc(Nc2cc(-c3ccnc(-n4ccn5c6c(cc5c4=O)CC(C)(C)C6)c3CF)cn(C)c2=O)nc1 [Compound 105] |
| 26 | 25 | Cn1nc(-c2ccnc(-n3ccn4c5c(cc4c3=O)CC(C)(C)C5)c2CO)cc(Nc2cn(CC(F)(F)F)nn2)c1=O [Compound 33] |
| 10 | 18 | C[C@H]1COCCN1c1ccc(Nc2cc(-c3ccnc(-n4ccn5c6c(cc5c4=O)CC(C)(C)C6)c3CO)cn(C)c2=O)nc1 [Compound 10] |
| 12 | 8 | C[C@@H]1CN(c2ccc(Nc3cc(-c4ccnc(-n5ncn6c7c(c(F)c6c5=O)CCCC7)c4CO)cn(C)c3=O)nc2)[C@@H](C)CN1C1COC1 [Compound 221] |
| 3 | < 1 | CC(C)n1cc(Nc2cc(-c3ccnc(-n4ccn5c6c(cc5c4=O)CC(C)(C)C6)c3CO)nn(C)c2=O)nn1 [Compound 7] |
| 11 | 17 | COCCN1CCN(c2ccc(Nc3cc(-c4ccnc(-n5ccn6c7c(cc6c5=O)CC(C)(C)C7)c4CO)cn(C)c3=O)nc2)C(C)(C)C1 [Compound 226] |
| 5 | 8 | 2-(3′-(hydroxymethyl)-5-((5-(2-methoxyethyl)-4-methyl-4,5,6,7-tetrahydropyrazolo[1,5-a]pyrazin-2-yl) amido)-1-methyl-6-oxo-1,6-dihydro-[3,4′-bispyridin]-2′-yl)-7,7-dimethyl-7,8-dihydro-2H-cyclopenta[4,5]pyrrolo[1,2-d][1,2,4]triazin-1(6H)-one optically Pure [Compound 120] |
| 2 | 10 | COCCN1CCn2nc(Nc3cc(-c4ccnc(-n5ccn6c7c(cc6c5=O)CC(C)(C)C7)c4CO)cn(C)c3=O)cc2C1 [Compound 70, 2-(3′-(hydroxymethyl)-5-((5-(2-methoxymethyl)-4,5,6,7-tetrahydropyrazolo[1,5-a]pyrazin-2-yl)amino)-1-methyl-6-oxo-1,6-dihydro-[3,4′-bispyridin]-2′-yl)-7,7-dimethyl-7,8-dihydro-2H-cyclopenta[4,5]pyrrolo[1,2-a]pyrazin-1(6H)-one] |
| 5 | 11 | C[C@@H]1CN(c2ccc(Nc3cc(-c4ccnc(-n5ncn6c7c(cc6c5=O)CC(C)(C)C7)c4CO)cn(C)c3=O)nn2)[C@@H](C)CN1C1COC1 [Compound 209] |
| 2 | 5 | C[C@@H]1CN(C2COC2)CCN1c1ccc(Nc2cc(-c3ccnc(-n4ccn5c6c(cc5c4=O)CC(C)(C)C6)c3CO)cn(C)c2=O)nc1 [Compound 80] |
| 11 | 132 | Cn1cc(-c2ccnc(-n3ccn4c5c(cc4c3=O)CC(C)(C)C5)c2CO)cc(Nc2ccc(-c3ccc(C4COC4)cc3)cn2)c1=O [Compound 37] |
| 30 | 8 | Cn1cc(Nc2cc(-c3ccnc(-n4ccn5c6c(cc5c4=O)CC(C)(C)C6)c3CO)nn(C)c2=O)nn1 [Compound 29] |
| 4 | 5 | Cn1cc(-c2ccnc(-n3ccn4c5c(cc4c3=O)CC(C)(C)C5)c2CO)cc(Nc2ccc(N3CCN(C4COC4)CC34CC4)cn2)c1=O [Compound 231] |

| Compound | IC50 [1] [nM] | IC50 (BTK recombinant protein) [nM] |
| --- | --- | --- |
| CC[C@H]1CN(C2COC2)CCN1c1ccc(Nc2cc(-c3ccnc(-n4ncn5c6c(cc5c4=O)CC(C)(C)C6)c3CO)cn(C)c2=O)nc1 [Compound 224] | 7 | 9 |
